Source: patent US20150040894A1 (VIRGINIA COMMONWEALTH UNIVERSITY, priority 2010, published 2015)

Columns and labels:
[1] = test system: IL-8 mRNA expression in NHBE cells; experiment: IL-8 mRNA expression by real-time quantitative PCR; assay type: cell-based, human; conditions: 4 h
Procedure: For the relative quantification of IL-8 mRNA expression, the expression of glyceraldehyde-3-phosphate dehydrogenase (GAPDH) was served as an internal control. EvaGreen was used as a DNA intercalator dye to monitor amplified DNA quantification, and real-time quantitative PCR curves were analyzed by the CFX Manager™ software (Bio-Rad) in order to obtain threshold cycle (Ct) values for each sample. Quantification was based on a standard curve. Appropriate IL-8 and GADPH forward and reverse primers were used.

[2] = test system: ERK1/2 phosphorylation in NHBE cells; experiment: LPS-induced phosphorylation of MAPKs (Western blotting); assay type: cell-based, human
Procedure: Membranes were stripped with a stripping buffer (100 mM 2-mercaptoethanol, 2% SDS, and 62.5 mM Tris/HCl pH 6.7) for 30 min at 30° C. The blots were reprobed with anti-p44/42 MAPK, anti-p38 MAPK, or anti-SAPK/JNK antibody (diluted 1:1000 for each), followed by anti-rabbit-IgG HRP secondary antibody (diluted 1:2000). To correct small differences in loading for NF-κB p65, blots were stripped, and reprobed with anti-human β-actin antibody (diluted 1:5000), followed by anti-mouse IgG HRP secondary antibody (diluted 1:5000). Western blot images were scanned and analyzed on NIH Image J software (18).

[3] = test system: LPS-inflamed ferret trachea; experiment: Mucociliary transport (MCT) on excised tracheal segments; assay type: in vivo; conditions: 5 days
Procedure: (§1) Twenty adult male ferrets (weight, 1.3 to 2.0 kg) were obtained from Marshall Farms (Rose, N.Y.). Ferrets were anesthetized with 40 mg/kg ketamine and 5 mg/kg xylazine, and exposed to endotoxin for 30 min once daily for 5 days by incubating with a 3.0 uncuffed endotracheal tube (ETT) coated with 10 mg of LPS mixed in 300 μl water soluble K-Y jelly (Johnson & Johnson, New Brunswick, N.J.) (Abanses et al., 2009). As controls, K-Y jelly without LPS was used in two ferrets.
This is equivalent to the oral dose used to treat persons with skin disease. For aerosol inhalation, ferrets were shallowly intubated with ETT, which was placed 1 cm below the larynx. […] Ferrets (body weight 1.5 kg) have 0.3-0.4 ml total lung lining fluid volume. Therefore, the dose delivered to the lung, is estimated to be 0.1 to 1.0 μg in this system given reported nebulization efficiency. […]
A tracheal segment was placed on a piece of gauze saturated with Ringer's solution in a chamber in which the relative humidity was maintained at 95 to 100% and the temperature was maintained at 22° C. to 24° C. MCT was measured by focusing a tracheal segment under a microscope with gradicule (grid line) eyepiece and recording the transport time of the leading edge of very fine shavings of plastic that were placed on the tracheal epithelium. […]

[4] = test system: NF-κB p65 phosphorylation in NHBE cells; experiment: LPS-induced phosphorylation of NF-κB p65 (Western blotting); assay type: cell-based, human
Procedure: After stimulation, the plated cells were washed with cold PBS, and then lysed on ice in a modified radio immunoprecipitation buffer (1% Nonidet P-40, 1% sodium deoxycholate, 150 mM NaCl, 10 mM Tris pH 7.5, 5 mM sodium pyrophosphate, 1 mM NaVO4, 5 mM NaF, 1 μg/ml aprotinin, 1 μg/ml leupeptin, and 0.1 mM PMSF) for 15 min and then scraped from the dishes. DNA was sheared by passing the lysate though a 27-gauge needle, and insoluble material was removed by centrifugation at 20,000 g for 15 min at 4° C. The protein concentration of the resulting supernatant was quantified by the DC protein assay (Bio-Rad, Hercules, Calif.). Equal amounts of protein extracts were loaded on a 12% SDS-PAGE mini gel and transferred to a nitrocellulose membrane (Bio-Rad). Membranes were blocked with blocking buffer (150 mM NaCl, 20 mM Tris, and 0.1% Tween 20, pH 7.6) containing 5% nonfat dry milk at 4° C. overnight. Subsequently, membranes were rinsed and incubated with the primary antibody: phospho (p)-p44/42 MAPK (Thr202/Tyr204) (diluted 1:2000), p-p38 MAPK (Thr180/Tyr182) (diluted 1:1000), p-SAPK/JNK (Thr183/Tyr185) (diluted 1:1000), or p-NF-κB p65 rabbit polyclonal IgG (diluted 1:1000) (Cell Signaling Technology), for 2 h at room temperature. The membranes were then incubated at room temperature for 1 h with the anti-rabbit IgG HRP secondary antibody (diluted 1:2000). Subsequently, the blots membranes were developed with LumiGLO chemiluminescent substrate peroxide (Cell Signaling Technology).
Membranes were stripped with a stripping buffer (100 mM 2-mercaptoethanol, 2% SDS, and 62.5 mM Tris/HCl pH 6.7) for 30 min at 30° C. The blots were reprobed with anti-p44/42 MAPK, anti-p38 MAPK, or anti-SAPK/JNK antibody (diluted 1:1000 for each), followed by anti-rabbit-IgG HRP secondary antibody (diluted 1:2000). […] Western blot images were scanned and analyzed on NIH Image J software (18).
The […] phosphorylation of NF-κB p65 was measured by Western blotting. The band intensity was calculated with NIH Image J software.

[5] = test system: LPS-inflamed ferret trachea; experiment: Intraepithelial neutrophil accumulation in LPS-inflamed ferret trachea; assay type: in vivo; conditions: 5 days
[6] = test system: steroid-dependent asthma patients; conditions: orally administered dapsone; cited from earlier work
[7] = test system: IL-8 secretion from NHBE cells; experiment: LPS-induced IL-8 secretion from NHBE cells in culture (ELISA); assay type: cell-based, human
Procedure: NHBE cells (Lonza Walkersville, Walkersville, Md.) were plated at 3,500 cells/cm^2 in culture dishes in bronchial epithelial cell growth medium (BEGM) supplemented with the SingleQuot® kit (Lonza) without antibiotics and cultured at 37° C. in a 5% CO2 incubator. We used endotoxin-free media (<0.005 endotoxin units/ml) and second-passage cells for all experiments. Cells were grown to confluence for 6 days. Cultures without antibiotics were then transferred to 6-well or 35 mm dishes coated with type 1 rat-tail collagen and seeded at 3,500 cells/cm^2. The medium was changed every 24 h. To avoid influence of growth factors on cell signaling and IL-8 secretion, cells were cultured in supplement-free bronchial epithelial cell basal medium (BEBM) for 24 h before stimulation. We evaluated cell response at the time of cell confluence rather than normalize to the relative number of cells because cell maturation could affect cell signaling and cytokine secretion, and at confluence, all cells are at similar growth stages. Culture supernatants were collected and centrifuged for 5 min at 200×g and stored at −20° C. until assayed. IL-8 was measured by ELISA (Beckman Coulter, Inc., Brea, Calif.) according to the manufacturer's instructions. Concentrations in each sample were obtained by interpolation from standard curves, and calculated as the mean of the results at the sample dilution. […] We chose to assess cell response at the time of cell confluence rather than normalize to the relative number of cells, because cell maturation could potentially affect cell signaling and cytokine secretion, and at confluence, all cells are at similar growth stages.

[8] = Ferret activity, appetite and weight after tracheal LPS with and without dapsone; assay type: in vivo; conditions: LPS 5 days, 5-day dapsone treatment (oral or nebulized) vs vehicle
Procedure: as §1
This is equivalent to the oral dose used to treat persons with skin disease. For aerosol inhalation, ferrets were shallowly intubated with ETT, which was placed 1 cm below the larynx. […] Ferrets (body weight 1.5 kg) have 0.3-0.4 ml total lung lining fluid volume. Therefore, the dose delivered to the lung, is estimated to be 0.1 to 1.0 μg in this system given reported nebulization efficiency.

[9] = test system: IL-13 induced goblet cell hyperplasia in NHBE cells; experiment: In vitro model of IL-13 induced goblet cell hyperplasia, ALI-conditioned NHBE cells; assay type: cell-based, human
Text: Globlet cells are columnar epithelial cells whose sole function is to secrete mucin, which dissolves in water to form mucus. […] An in vitro model of goblet cell hyperplasia was developed using normal human bronchial epithelial (NHBE) cells cultured under air-liquid interface (ALI) conditions.

[10] = in vivo; cited from earlier work
IL-8 release from NHEK = conditions: cited from earlier work
[11] = test system: apical and basolateral IL-8 secretion from ALI-conditioned NHBE cells; experiment: IL-8 secretion from NHBE cells cultured under air-liquid interface (ALI) condition; assay type: cell-based, human; conditions: dapsone 1 μg/ml in basolateral medium, LPS 10 μg/ml 24 h
Procedure: For NHBE cell differentiation, cells were plated at 2.0×10^5 cells/cm^2 onto polycarbonate inserts of 6.5-mm diameter, 0.4-μm pore size and 10-μm thickness (Costar Transwell Clear, Cambridge, Mass., USA) coated with type 1 rat-tail collagen, and cultured with serum-free DMEM/F12 medium containing ITS-A (1.0%; Invitrogen Co., Carlsbad, Calif.), epidermal growth factor (EGF) (recombinant human EGF, 0.5 ng/ml; Invitrogen Co.), triiodothyronine (10 ng/ml; […] Sigma-Aldrich), bovine serum albumin (2.0 μg/ml; Sigma-Aldrich) and bovine pituitary extract (30 μg/ml; Invitrogen Co.). After achieving confluence, the apical medium was removed, and cells were cultured with an air-liquid-interface (ALI) method. The culture medium was changed every 48 h, and cells were maintained at 37° C. in a 5% CO2, for 10-14 days. Culture supernatants were collected and centrifuged for 5 min at 200×g and stored at −20° C. until assayed. IL-8 was measured by ELISA (Beckman Coulter, Inc., Brea, Calif.) according to the manufacturer's instructions. Concentrations in each sample were obtained by interpolation from standard curves, and calculated as the mean of the results at the sample dilution. […] NHBE cells were stimulated with LPS from the apical (AP-LPS) or basolateral side (BL-LPS) for 24 h, and IL-8 secretion levels in both chambers were measured. […]

For `C[C@@H]1C[C@H]2[C@@H]3CCC4=CC(=O)C=C[C@]4(C)[C@@]3(F)[C@@H](O)C[C@]2(C)[C@@]1(O)C(=O)CO` [DEX, dexamethasone], the “decrease of basal IL-8 mRNA level” value ([1]; DEX 0.1 μg/ml, P<0.05) was ~40%.

With `Nc1ccc(S(=O)(=O)c2ccc(N)cc2)cc1` [dapsone, 4,4′-diaminodiphenyl sulfone] the “basal IL-8 mRNA level” value ([1]; dapsone 1 μg/ml) was “did not influence”, the “LPS-induced IL-8 mRNA over expression” value ([1]; dapsone 1 and 10 μg/ml, LPS 10 μg/ml, P<0.05 for each) was “significantly inhibited” and the “LPS-induced ERK1/2 phosphorylation at 1 h” value ([2]; dapsone 1 μg/ml, LPS 10 μg/ml, 1 h, P<0.05) was “inhibited”. The “LPS-induced ERK1/2 phosphorylation after 4 h” value ([2]; dapsone 1 μg/ml, LPS 10 μg/ml, after 4 h) was “this effect disappeared”, the MCT velocity ([3]; aerosol dapsone 0.5 mg/ml, 15 min once daily, P=0.007 vs LPS control, normal approximately 7 mm/min) was 6 mm/min and the MCT ([3]; oral dapsone 2 mg/kg daily, P=0.09, LPS alone 1-3 mm/minute) was “the increase was not significant”. For the same compound, the “NF-κB p65 activation” value ([4]; dapsone 0.3 μg/mL) was “did not significantly inhibit”, the “LPS-induced NF-κB p65 phosphorylation” value ([4]; dapsone 1 μg/ml, LPS 10 μg/ml, 15 min to 2 h, to the control level) was “significantly inhibited” and the “dose dependence of inhibition of NF-κB p65 phosphorylation” value ([4]; dapsone 0.3, 1 and 10 μg/ml (P=0.16 for 0.3; P<0.01 for 1 and 10 μg/ml)) was “dose-dependent”. The “neutrophil accumulation in tracheal epithelium” value ([5]; nebulized dapsone 0.5 mg/ml, 15 min once daily, P<0.05) was “significantly inhibited”, the “neutrophil recruitment in tracheal epithelium” value ([5]; oral dapsone 2 mg/kg daily, P=0.3) was “tended to inhibit” and the “patients able to substantially reduce or stop taking steroids” value [6] was 9 out of 10. For the same compound, the “basal IL-8 secretion” value ([7]; dapsone 1 μg/ml, 48 and 72 h, no LPS) was “did not affect”, the “LPS-induced IL-8 secretion over time” value ([7]; dapsone 1 μg/ml, LPS 10 μg/ml, up to 72 h) was “significantly and persistently decreased” and the “LPS-induced IL-8 secretion” value ([7]; dapsone 0.3, 1 or 10 μg/ml, LPS 10 μg/ml, 24 h, P<0.01 for each) was “suppressed”. For the same compound, the “ferret activity or appetite” value [8] was “no measurable effect”, the “ferret weight over 9 days” value [8] was “no difference” and the “growth of ALI-conditioned NHBE cells” value ([9]; dapsone 3 μg/ml, no IL-13) was “no measurable effect”. The “amount and extent of IL-13 induced goblet cell hyperplasia” value ([9]; dapsone 10 μg/ml, vs control cell cultures) was “decreased”, the therapeutic serum levels [10] was 0.5 to 5 µg/mL and the “basal IL-8 level” value (IL-8 release from NHEK; NHEK) was “did not depress”. For the same compound, the “bullous pemphigoid IgG-mediated IL-8 release” value (IL-8 release from NHEK; dapsone in a therapeutic concentration) was “inhibited”, the “basolateral IL-8 increased by AP- or BL-LPS” value ([11]; P<0.001 AP-LPS, P<0.01 BL-LPS) was “inhibited” and the “apical IL-8 level increased by AP-LPS” value ([11]; P<0.05) was “inhibited”.

With `COc1cccc(-c2cc(=O)c3ccccc3o2)c1N` [PD98059, 2′-amino-3′-methoxyflavone] the “LPS-induced ERK1/2 phosphorylation” value ([2]; PD98059 20 μM added 1 h before LPS 10 μg/ml, 4 h) was “abolished” and the “LPS-induced IL-8 secretion” value ([7]; PD98059 20 μM added 1 h before LPS) was “did not inhibit”.
